Read-outs that look alike come from different tables or passages of the source.
Experiments:
Aβ40 = target: T1, Aβ40 (Homo sapiens, UniProt P05067); test: Inhibition of self-induced Aβ40 aggregation (ThT fluorescence, HFIP); format: biochemical; settings: Aβ40 30 μM, mean ± SEM, n = 3; for IC50: 2 h at 25 °C, PBS 2% HFIP, read-out: Aβ40 aggr IC50; for inhibition at 100 µM: read-out: Aβ40 aggr % inhibition
T1 construct: samples of Aβ40 (30 μM) were coincubated for 2 h at 25 °C with test molecules; purchased EzBiolab, Carmel, IN, USA
Method: In vitro inhibition of Aβ40 aggregation was assessed following a previously reported thioflavin T (ThT) fluorescence-based method involving the use of hexafluoroisopropanol (HFIP) as aggregation enhancer. […].
In vitro inhibition assay of Aβ40 aggregation has been previously reported[41] and adapted to a 96-well plate platform.
After incubation in 96-well black, nonbinding microplates (Greiner Bio-One GmbH, Frickenhausen, Germany), thioflavin T (25 μM) was added and fluorimetric reads (ex 440, em 485 nm) were performed in a multiplate reader Infinite M1000 Pro (Tecan, Cernusco sul Naviglio, Italy). Experiments were run in triplicate. Results were expressed by statistical analysis while IC50 values were obtained by nonlinear regression using Prism software (GraphPad Prism version 5.00 for Windows, GraphPad Software, San Diego, CA, USA).

[1] = target: T2, eeAChE (AChE from electric eel) (Electrophorus electricus, UniProt O42275); test: biochemical; settings: mean ± SEM, n = 3
T2 construct: purchased Sigma-Aldrich, Milan, Italy

[2] = target: T3, esBChE (BChE from equine serum) (Equus caballus, UniProt P81908); test: biochemical; settings: at 10 μM; mean ± SEM, n = 3
T3 construct: BChE from horse serum (13 U/mL); purchased Sigma-Aldrich, Milan, Italy; host or cells: horse serum

hMAO A = target: T4, hMAO A (Homo sapiens, UniProt P21397); test: MAO A inhibition (fluorimetric kynuramine assay); format: biochemical; settings: mean ± SEM, n = 3
T4 construct: purchased Sigma-Aldrich
T4 sequence (P21397 1-527): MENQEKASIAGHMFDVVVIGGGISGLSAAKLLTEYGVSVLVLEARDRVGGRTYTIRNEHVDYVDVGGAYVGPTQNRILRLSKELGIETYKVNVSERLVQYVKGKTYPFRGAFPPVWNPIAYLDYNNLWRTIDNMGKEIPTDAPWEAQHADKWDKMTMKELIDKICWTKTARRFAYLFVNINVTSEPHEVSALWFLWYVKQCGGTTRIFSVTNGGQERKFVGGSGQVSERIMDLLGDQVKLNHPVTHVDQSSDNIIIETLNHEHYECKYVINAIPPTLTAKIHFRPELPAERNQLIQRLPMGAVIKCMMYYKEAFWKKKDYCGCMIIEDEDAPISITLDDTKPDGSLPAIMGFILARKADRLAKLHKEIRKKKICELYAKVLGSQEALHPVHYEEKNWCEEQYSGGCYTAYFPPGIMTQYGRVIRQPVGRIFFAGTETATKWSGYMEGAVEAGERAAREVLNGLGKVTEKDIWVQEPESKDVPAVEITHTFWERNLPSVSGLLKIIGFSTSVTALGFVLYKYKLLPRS

MAO B [3] = target: T5, MAO B (Homo sapiens, UniProt P27338); test: MAO B inhibition (fluorimetric kynuramine assay, inhibition kinetics); format: biochemical; settings: mean ± SEM, n = 3
T5 construct: purchased Sigma-Aldrich
T5 sequence (P27338 1-520): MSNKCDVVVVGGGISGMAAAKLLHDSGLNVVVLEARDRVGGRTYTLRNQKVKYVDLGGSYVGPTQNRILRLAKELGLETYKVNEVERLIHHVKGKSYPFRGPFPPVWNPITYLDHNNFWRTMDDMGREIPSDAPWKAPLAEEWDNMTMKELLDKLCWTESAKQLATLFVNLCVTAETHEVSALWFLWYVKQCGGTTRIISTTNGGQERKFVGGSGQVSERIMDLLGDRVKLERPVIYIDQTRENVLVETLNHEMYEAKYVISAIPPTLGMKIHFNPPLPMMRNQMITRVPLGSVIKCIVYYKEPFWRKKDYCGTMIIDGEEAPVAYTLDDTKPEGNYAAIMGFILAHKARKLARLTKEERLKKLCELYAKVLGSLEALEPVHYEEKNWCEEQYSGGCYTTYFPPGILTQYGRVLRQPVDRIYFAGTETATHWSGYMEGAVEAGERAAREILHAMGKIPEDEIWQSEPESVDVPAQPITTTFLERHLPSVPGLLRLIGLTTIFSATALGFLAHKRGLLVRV

AChE = test system: AChE; parameters: method as in PMID 25924599; settings: first series; cited from earlier work
MAO B [4] = target: T5, MAO B; test: MAO B kynuramine assay in spectrophotometric mode (4-hydroxyquinoline absorbance at 316 nm), incl. time course; format: biochemical; settings: 100 nM inhibitor
in vitro = settings: PAMPA, pH 7.4

T1 sequence (P05067 672-711 limits assumed): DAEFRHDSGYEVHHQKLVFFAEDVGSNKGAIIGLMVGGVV
T2 sequence (O42275 24-633): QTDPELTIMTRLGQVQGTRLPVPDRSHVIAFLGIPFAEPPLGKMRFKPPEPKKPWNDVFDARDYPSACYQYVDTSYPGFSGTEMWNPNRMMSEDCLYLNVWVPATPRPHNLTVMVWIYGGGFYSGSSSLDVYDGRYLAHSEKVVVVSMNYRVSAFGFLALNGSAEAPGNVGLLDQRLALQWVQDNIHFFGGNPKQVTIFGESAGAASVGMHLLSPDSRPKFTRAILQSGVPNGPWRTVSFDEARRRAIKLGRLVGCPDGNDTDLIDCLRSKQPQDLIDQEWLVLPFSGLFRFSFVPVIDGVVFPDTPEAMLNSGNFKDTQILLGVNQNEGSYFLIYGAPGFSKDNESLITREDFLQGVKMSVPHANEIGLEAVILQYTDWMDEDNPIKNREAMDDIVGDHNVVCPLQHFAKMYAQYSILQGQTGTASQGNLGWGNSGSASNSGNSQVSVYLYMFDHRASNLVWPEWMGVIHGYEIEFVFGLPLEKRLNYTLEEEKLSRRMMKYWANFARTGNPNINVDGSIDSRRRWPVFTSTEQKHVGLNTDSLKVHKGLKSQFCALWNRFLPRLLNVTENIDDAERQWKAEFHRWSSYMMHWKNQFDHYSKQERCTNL
T3 sequence (P81908 whole entry): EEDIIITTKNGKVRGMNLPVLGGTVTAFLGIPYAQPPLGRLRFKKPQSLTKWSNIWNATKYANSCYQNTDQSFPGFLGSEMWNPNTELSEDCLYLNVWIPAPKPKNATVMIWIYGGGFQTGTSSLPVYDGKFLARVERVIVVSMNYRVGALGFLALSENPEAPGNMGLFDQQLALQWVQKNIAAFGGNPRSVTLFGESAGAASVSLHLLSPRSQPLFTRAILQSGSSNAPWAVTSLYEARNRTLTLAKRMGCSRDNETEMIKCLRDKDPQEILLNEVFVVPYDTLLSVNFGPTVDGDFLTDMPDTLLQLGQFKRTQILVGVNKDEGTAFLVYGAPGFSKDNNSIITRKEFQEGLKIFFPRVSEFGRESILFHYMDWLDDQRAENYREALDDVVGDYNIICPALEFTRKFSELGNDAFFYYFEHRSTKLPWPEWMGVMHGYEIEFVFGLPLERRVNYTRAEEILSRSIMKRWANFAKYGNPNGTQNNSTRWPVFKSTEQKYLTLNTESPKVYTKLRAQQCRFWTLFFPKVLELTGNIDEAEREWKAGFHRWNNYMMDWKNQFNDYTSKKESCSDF

Row | SMILES | IC50 [1] | inhibition at 10 µM [2] | inhibition at 10 µM (hMAO A) | Papp at 16 h (in vitro) | other results
1 | O=C1C(Cl)=C(NCCCc2ccccc2)C(=O)c2ccccc21 [Compound 4, 2-Chloro-3-(phenylpropylamino)-1,4-naphthoquinone] | 3.5 ± 0.3 µM | 35% |  |  | IC50 (Aβ40): 8.2 ± 0.3 µM; IC50 (hMAO A): 3 ± 0.2 µM; IC50 (MAO B [3]): 0.054 ± 0.001 µM
2 | O=C1C=C(NC[C@@H]2CCCN3CCCC[C@H]23)C(=O)c2ccccc21 [I] |  |  |  |  | IC50 (AChE): 5.8 µM
3 | O=C1c2ccccc2C(=O)c2c(NCCc3c[nH]c4ccccc34)cccc21 [Compound 13, 1-{[2-(1H-Indol-3-yl)ethyl]amino}-9,10-anthraquinone] | 1.85 ± 0.04 µM | 17% | 25% |  | inhibition at 100 µM (Aβ40): ~60%; inhibition at 10 µM (MAO B [3]): 42%
4 | C#CCN(C)Cc1ccccc1 [pargyline, reference compound] |  |  |  |  | MAO B enzymatic activity in time course (MAO B [4]; 1 h preincubation with enzyme): completely inhibited; time until MAO B enzymatic activity came to saturation (MAO B [4]; no preincubation): about 1 h
5 | O=C1c2ccccc2C(=O)c2c(NCC[C@@H]3CCCN4CCCC[C@H]34)cccc21 [X] |  |  |  |  | IC50 (AChE): 0.84 µM
6 | CCn1cc(C(=O)O)c(=O)c2cc(F)c(N3CCNCC3)cc21 [Norfloxacin] |  |  |  | 0.3 ×10⁻⁶ cm/s | 
7 | NCCc1ccc(O)c(O)c1 [Dopamine] |  |  |  | 0.6 ×10⁻⁶ cm/s | 
8 | O=C1C(Cl)=C(NCCn2nnc3ccccc32)C(=O)c2ccccc21 [Compound 7, 2-{[2-(1H-Benzotriazol-1-yl)ethy]amino}-3-chloro-1,4-naphthoquinone] | 1.7 ± 0.1 µM | 15% | 21% |  | IC50 (Aβ40): 8.7 ± 0.4 µM; IC50 (MAO B [3]): 0.48 ± 0.08 µM
9 | CC(=O)[C@H]1CC[C@H]2[C@@H]3CCC4=CC(=O)CC[C@]4(C)[C@H]3CC[C@]12C [Progesterone] |  |  |  | 11.7 ×10⁻⁶ cm/s | 
10 | CCn1cc(C(=O)O)c(=O)c2cc(F)c(N3CCNC(C)C3)c(F)c21 (stereo not shown) [Lomefloxacin] |  |  |  | 1.5 ×10⁻⁶ cm/s | 
11 | CN1C(C(=O)Nc2ccccn2)=C(O)c2ccccc2S1(=O)=O [Piroxicam] |  |  |  |  | Papp (in vitro): 1.6 ×10⁻⁶ cm/s
12 | O=C1C(Cl)=C(NC(Cc2ccccc2)C(=O)O)C(=O)c2ccccc21 (stereo not shown) [Compound 8] | 13 ± 2 µM | 14% | 26% | 6.1 ± 0.4 ×10⁻⁶ cm/s | IC50 (Aβ40): 17 ± 2 µM; IC50 (MAO B [3]): 2.7 ± 0.8 µM; CNS prediction (based on the PAMPA-BBB classification range from Di et al.): CNS+
13 | O=C1C(Cl)=C(NCCn2cnc3ccccc32)C(=O)c2ccccc21 [Compound 6, 2-[2-(1H-Benzimidazol-1-yl)ethylamino]-3-chloro-1,4-naphthoquinone] | 6.8 ± 0.7 µM | 24% | 23% |  | IC50 (Aβ40): 19 ± 4 µM; inhibition at 10 µM (MAO B [3]): 24%
14 | CN(C)CCCN1c2ccccc2Sc2ccc(Cl)cc21 [Chlorpromazine] |  |  |  | 7.2 ×10⁻⁶ cm/s | 
15 | O=c1c(O)c(-c2ccc(O)c(O)c2)oc2cc(O)cc(O)c12 [quercetin, reference compound] |  |  |  | 0.14 ± 0.06 ×10⁻⁶ cm/s | CNS prediction (PAMPA): CNS-
16 | O=C1C(Cl)=C(Nc2ccccc2)C(=O)c2ccccc21 [Compound 1] |  | 8% | < 5% |  | inhibition at 100 µM (Aβ40): ~60%; inhibition at 10 µM ([1]; at 10 μM): 39%; inhibition at 10 µM (MAO B [3]): 22%
17 | O=C1c2ccccc2C(=O)c2c(NCc3ccccc3)cccc21 [Compound 10, 1-(Benzylamino)-9,10-anthraquinone] | 8.7 ± 0.5 µM | 24% |  |  | inhibition at 100 µM (Aβ40): ~60%; IC50 (hMAO A): 1.1 ± 0.3 µM; inhibition at 10 µM (MAO B [3]): 34%
18 | Clc1cccc(Cl)c1N=C1NCCN1 [Clonidine] |  |  |  | 5.6 ×10⁻⁶ cm/s | 
19 | O=C1C(Cl)=C(NC(Cc2c[nH]c3ccccc23)C(=O)O)C(=O)c2ccccc21 (stereo not shown) [Compound 9] | 11 ± 1 µM | 17% | 22% |  | IC50 (Aβ40): 14 ± 2 µM; inhibition at 10 µM (MAO B [3]): 52%
